Assay results published in patent US20240269155A1, “METHODS AND USES OF BORON COMPOUNDS IN THE TREATMENT OF NONTUBERCULOUS MYCOBACTERIUM INFECTIONS AND PHARMACEUTICAL COMPOSITIONS FOR TREATMENT OF SAME” (priority 2022, published 2024).
Where two headings read alike, the source gives them in different places.

Legend:
[1] = system: clinical isolates of M. abscessus complex; assay: MIC against clinical isolates of M. abscessus complex; format: cell-based, M. abscessus and M. massiliense
M. gordonae = assay: MIC determination (CLSI M24-A2); format: cell-based, Mycobacterium gordonae
Method: (§1) The in vitro activity of the parent boron compound described herein was assessed by standard testing procedures such as the determination of minimum inhibitory concentration (MIC) as described in Clinical and Laboratory Standards Institute (CLSI) document M24-A2. Lower MIC values indicate high antibacterial activity, while higher MIC values indicate a reduced antibacterial activity. Generally, MIC values of about ≤2 mg/L indicate a good therapeutic (i.e., suitable for therapy) potency for antibacterial drugs, while MIC values of ≥8 mg/L indicate a lack of therapeutically useful activity for a test compound.
(§2) (MIC ranges from 0.063-2 mg/L).

M. peregrinum = assay: MIC determination (CLSI M24-A2); format: cell-based, Mycobacterium peregrinum
Method: as §1, §2

M. avium = assay: MIC determination (CLSI M24-A2); format: cell-based, Mycobacterium avium
Method: as §1, §2

[2] = Lung distribution study in mouse; format: in vivo, Balb/C mouse; conditions: 10 mg/kg iv
M. intercelleulare = assay: MIC determination (CLSI M24-A2); format: cell-based, Mycobacterium intercelleulare
Method: as §1, §2

M. abscessus CIP108297 = assay: M. abscessus mouse lung infection model; format: in vivo, BALB/c mice
Method: To establish the efficacy of the compounds described herein in vivo, an M. abscessusmouse lung infection model was performed. Groups of BALB/c mice (The mice were randomly divided into groups with 6 mice in each group) were administered cyclophosphamide one week before infection, and then inoculated intranasally with M. abscessus CIP108297 (10^7 CFU/mouse). Three days after infection, the mice were subsequently treated with 10 mg/kg of the compound of Example 4 or GSK656 administered daily by subcutaneous, or 100 mg/kg linezolid (an approved antibiotic) or 200 mg/kg clarithromycin (an approved antibiotic) administered daily by oral gavage. […] This may be attributed to the surprising finding of lower MBC in the compound of Example 4.

M. abscessus = assay: MIC determination (CLSI M24-A2); format: cell-based, Mycobacterium abscessus
Method: as §1, §2

[3] = system: clinical isolates of M. abscessus complex; assay: MBC against clinical isolates of M. abscessus complex; format: cell-based, M. abscessus and M. massiliense; conditions: for Classification: from MBC/MIC ratio
Mycobacteria pathogens = assay: MIC against mycobacteria pathogens, summary over species; format: cell-based, nontuberculous Mycobacterium; conditions: for MIC range: M. intercelleulare, M. fortuitum, M. peregrinum, M. smegmatis, M. massiliense
M. fortuitum = assay: MIC determination (CLSI M24-A2); format: cell-based, Mycobacterium fortuitum
Method: as §1, §2

M. smegmatis = assay: MIC determination (CLSI M24-A2); format: cell-based, Mycobacterium smegmatis
Method: as §1, §2

M. scrofulaceum = assay: MIC determination (CLSI M24-A2); format: cell-based, Mycobacterium scrofulaceum
Method: as §1, §2

M. massiliense = assay: MIC determination (CLSI M24-A2); format: cell-based, Mycobacterium massiliense
Method: as §1, §2

[4] = Rat PK model, intravenous or oral gavage; format: in vivo, SD rats; conditions: 5 mg/kg, parent compound Example 4 quantified
Description: To further elucidate the therapeutic potential of drug compounds, pharmacokinetic (PK) data is often used to establish key parameters predictive of a therapy outcome, such as the area under the curve (AUC) of a plot monitoring the change in systemic drug concentration over time. A higher AUC value indicates a greater exposure to the drug, commonly associated with a greater therapeutic potential due to a higher amount of drug available to combat the infection. In contrast, a lower AUC value indicates a reduced exposure to the drug, resulting in a reduced amount of antibiotic available to combat bacterial infections. To that end, the compounds described herein were tested in the rat PK model of oral administration performed analogously to the methods described in the monograph Current Protocols in Pharmacology, 2005, 7.1.1-7.1.26, John Wiley & Sons, Inc.
All the compounds were administered to SD rats (The rats were randomly divided into groups with 3 rats in each group) by intravenous or oral gavage. The prodrugs convert to the parent drug molecule in vivo. Therefore, only the parent compound Example 4 was analyzed and quantified in all test samples. […] Furthermore, based on the known comparison of rodent tests to human data (such as known species-to-species PK scaling), this is possible with a lower dosage for therapy in humans.

[5] = 20 clinical isolates of M. abscessus complex

In the case of “[(2S,6R)-2-(Aminomethyl)-4-bora-3,5,8-trioxatricyclo[7.3.1.04,13]trideca-1(12),10-dien-6-yl]methanol hydrochloride [Example 4]”, the MIC [1] is reported as 0.063 µg/mL, the MIC ([1]; clinical isolate A35) is reported as 0.063 µg/mL and the MIC ([1]; clinical isolate A51) is reported as 0.063 µg/mL. It also gave an MIC ([1]; clinical isolate A197) of 0.063 µg/mL, an MIC ([1]; clinical isolate A215) of 0.063 µg/mL and an MIC ([1]; clinical isolate A217) of 0.063 µg/mL. The MIC ([1]; clinical isolate A222) was 0.063 µg/mL, the MIC ([1]; clinical isolate A255) was 0.063 µg/mL and the MIC ([1]; clinical isolate A311) was 0.063 µg/mL. It also gave an MIC ([1]; clinical isolate G73) of 0.063 µg/mL, an MIC ([1]; clinical isolate G74) of 0.063 µg/mL and an MIC ([1]; clinical isolate G87) of 0.063 µg/mL. It also gave an MIC ([1]; clinical isolate G110) of 0.063 µg/mL, an MIC ([1]; clinical isolate G164) of 0.063 µg/mL and an MIC ([1]; clinical isolate G182) of 0.063 µg/mL. It also gave an MIC (M. gordonae) of 0.5 µg/mL, an MIC (M. peregrinum) of 0.125 µg/mL and an MIC (M. avium) of 2 µg/mL. For the same substance, the “AUC ratio (lung/plasma)” value ([2]; analyte Example 4) was 2.39, the AUClast ([2]; analyte Example 4, lung) was 12822 ng·h/g and the t1/2 ([2]; analyte Example 4, lung) was 1.46 h. For the same substance, the AUClast ([2]; analyte Example 4, plasma) was 5359 ng·h/mL, the t1/2 ([2]; analyte Example 4, plasma) was 1.87 h and the MIC (M. intercelleulare) was 2 µg/mL. The “reduction in bacteria in the lungs compared to the untreated groups” value (M. abscessus CIP108297; 10 mg/kg daily subcutaneous, treatment from 3 days after infection, lung CFU at 2 weeks post-infection) was about 7.8 log 10 CFU, the “lung pathology, H&E stained tissue sections” value (M. abscessus CIP108297; 2-weeks post-infection, treated group) was “pathologic changes were rare and lung lesions were negligible” and the “organisms in the lungs compared to animals treated with GSK656” value (M. abscessus CIP108297; both 10 mg/kg daily subcutaneous, 2 weeks post-infection) was “reduced markedly”. The MIC (M. abscessus) was 0.063 µg/mL, the MBC [3] was 0.125 µg/mL and the “MBC compared with GSK656” value [3, 5] was “much lower MBC against all isolates tested”. The “bactericidal/bacteriostatic classification over the isolates” value [3, 5] was “bactericidal against half of the isolates”, the MBC ([3]; clinical isolate A35) was 0.25 µg/mL and the Classification ([3]; clinical isolate A35) was “Bactericidal (bactericidal if the MBC/MIC ratio was <4)”. For the same substance, the MBC ([3]; clinical isolate A51) was 0.25 µg/mL, the Classification ([3]; clinical isolate A51) was “Bactericidal (bactericidal if the MBC/MIC ratio was <4)” and the MBC ([3]; clinical isolate A197) was 1 µg/mL. The Classification ([3]; clinical isolate A197) was “Bacteriostatic (bacteriostatic if the ratio was >4)”, the MBC ([3]; clinical isolate A213) was 0.25 µg/mL and the Classification ([3]; clinical isolate A213) was “Bactericidal (bactericidal if the MBC/MIC ratio was <4)”. For the same substance, the MBC ([3]; clinical isolate A215) was 0.5 µg/mL, the Classification ([3]; clinical isolate A215) was “Bacteriostatic (bacteriostatic if the ratio was >4)” and the MBC ([3]; clinical isolate A217) was 0.5 µg/mL. For the same substance, the Classification ([3]; clinical isolate A217) was “Bacteriostatic (bacteriostatic if the ratio was >4)”, the MBC ([3]; clinical isolate A222) was 0.25 µg/mL and the Classification ([3]; clinical isolate A222) was “Bactericidal (bactericidal if the MBC/MIC ratio was <4)”. The Classification ([3]; clinical isolate A232) was “Bactericidal (bactericidal if the MBC/MIC ratio was <4)”, the MBC ([3]; clinical isolate A255) was 0.25 µg/mL and the Classification ([3]; clinical isolate A255) was “Bactericidal (bactericidal if the MBC/MIC ratio was <4)”. For the same substance, the MBC ([3]; clinical isolate A268) was 2 µg/mL, the Classification ([3]; clinical isolate A268) was “Bacteriostatic (bacteriostatic if the ratio was >4)” and the MBC ([3]; clinical isolate A274) was 2 µg/mL. For the same substance, the Classification ([3]; clinical isolate A274) was “Bacteriostatic (bacteriostatic if the ratio was >4)”, the MBC ([3]; clinical isolate A311) was 0.25 µg/mL and the Classification ([3]; clinical isolate A311) was “Bactericidal (bactericidal if the MBC/MIC ratio was <4)”. The MBC ([3]; clinical isolate A353) was 0.25 µg/mL, the Classification ([3]; clinical isolate A353) was “Bactericidal (bactericidal if the MBC/MIC ratio was <4)” and the MBC ([3]; clinical isolate G73) was 1 µg/mL. The Classification ([3]; clinical isolate G73) was “Bacteriostatic (bacteriostatic if the ratio was >4)”, the MBC ([3]; clinical isolate G74) was 1 µg/mL and the Classification ([3]; clinical isolate G74) was “Bacteriostatic (bacteriostatic if the ratio was >4)”. The MBC ([3]; clinical isolate G87) was 0.5 µg/mL, the Classification ([3]; clinical isolate G87) was “Bacteriostatic (bacteriostatic if the ratio was >4)” and the MBC ([3]; clinical isolate G104) was 0.25 µg/mL. The Classification ([3]; clinical isolate G104) was “Bactericidal (bactericidal if the MBC/MIC ratio was <4)”, the MBC ([3]; clinical isolate G110) was 1 µg/mL and the Classification ([3]; clinical isolate G110) was “Bacteriostatic (bacteriostatic if the ratio was >4)”. The MBC ([3]; clinical isolate G164) was 0.25 µg/mL, the Classification ([3]; clinical isolate G164) was “Bactericidal (bactericidal if the MBC/MIC ratio was <4)” and the MBC ([3]; clinical isolate G182) was 1 µg/mL. The Classification ([3]; clinical isolate G182) was “Bacteriostatic (bacteriostatic if the ratio was >4)”, the “fold more potent than GSK656 (MIC)” value (Mycobacteria pathogens; M. avium and M. intercelleulare) was 4 fold and the MIC range (Mycobacteria pathogens; across M. scrofulaceum, M. gordonae, M. avium, M. abscessus) was 0.063 to 2 µg/mL. For the same substance, the MIC range (Mycobacteria pathogens; rapidly growing mycobacteria (RGM): M. abscessus) was 0.063 to 0.125 µg/mL, the MIC (M. fortuitum) was 0.125 µg/mL and the MIC (M. smegmatis) was 0.125 µg/mL. For the same substance, the MIC (M. scrofulaceum) was 0.25 µg/mL, the MIC (M. massiliense) was 0.063 µg/mL and the AUC ([4]; iv) was 5661 ng·h/mL. It also gave a Cmax ([4]; iv) of 6776 ng/mL, an AUC ([4]; oral) of 856 ng·h/mL and a Cmax ([4]; oral) of 139 ng/mL. For the same substance, the Oral bioavailability ([4]; oral) was 15%.
